# Laboratory results as given in patent US20090018162A1, “USE OF 6-(3-CHLORO-2-FLUOROBENZYL)-1-[(2S)-1-HYDROXY-3-METHYLBUTAN-2-YL]-7-METHOXY-4-OXO-1,4-DIHYDROQUINOLINE-3-CARBOXYLIC ACID OR SALT THEREOF FOR TREATING RETROVIRUS INFECTION” (priority 2006, published 2009).
# Where two headings read alike, the source gives them in different places.
# What was measured:
# [1] = MTS cytotoxicity in monocyte/macrophage cultures; assay type: cell-based; conditions: human, fresh adherent monocyte/macrophage cultures, HIV-infected, macrophages, MTS, read-out: TC50
# Method: Anti-HIV Efficacy Evaluation in Fresh Human Monocyte/Macrophage. Monocytes/macrophages were allowed to adhere to the interior 60 wells of a 96 well flat bottomed plate for 2 to 18 hours at 37° C., 5% CO2. Following 6 to 14 days in culture, the monocyte/macrophage cultures were washed 3 times to remove any non-adherent cells and serially diluted test compounds were added followed by the addition of a pre-titered amount of HIV. Cultures were washed a final time by media removal 24 hours post infection, fresh compound added and the cultures continued for an additional six days. […] At assay termination, virus replication was measured by collecting cell-free supernatant samples which were analyzed for HIV p24 antigen content using a commercially available p24 ELISA assay (Coulter). […] MTS staining for PBMC viability to measure cytotoxicity. […] The mitochondrial enzymes of metabolically active cells metabolize MTS to yield a soluble formazan product. This allows the rapid quantitative analysis of cell viability and compound cytotoxicity. […] At termination of the assay, 20 μL of MTS reagent was added per well. The microtiter plates were then incubated 4-6 hrs at 37° C. The incubation intervals were chosen based on empirically determined times for optimal dye reduction. […] Data analysis.
# HIV-1 clinical isolates [2] = experiment: microbe, parasite or virus in culture; conditions: Human immunodeficiency virus 1, PBMC
# HIV-2 CDC 310319 [3] = conditions: HIV-2 CDC 310319 in PBMCs
# human PBMCs [4] = conditions: 7 days
# [5] = system: HIV-1 macrophage-tropic virus strains; experiment: microbe, parasite or virus in culture; conditions: in Homo sapiens
# [6] = system: HIV-1 macrophage-tropic virus strains
# HIV-2 CDC 310319 [7] = experiment: microbe, parasite or virus in culture; conditions: Human immunodeficiency virus 2, PBMC
# [8] = system: drug-resistant HIV-1 isolates; experiment: Anti-HIV efficacy in fresh human PBMCs, drug-resistant HIV-1 isolates; conditions: for IC50: Human immunodeficiency virus 1, PBMC, in Homo sapiens
# HIV-1 clinical isolates [9] = system: HIV-1 clinical isolates
# [10] = system: recombinant HIV-1 clones (patient protease/RT sequences in HIV-1 NL4-3); experiment: microbe, parasite or virus in culture; assay type: cell-based; conditions: one experiment
# [11] = MTS staining for PBMC viability (cytotoxicity); conditions: human
# human PBMCs [12] = experiment: MTS staining for PBMC viability (cytotoxicity); conditions: read-out: TC50, PBMCs, MTS
compound,measurement,setting,value
"COc1cc2c(cc1Cc1cccc(Cl)c1F)c(=O)c(C(=O)O)cn2[C@H](CO)C(C)C [Compound I, 6-(3-chloro-2-fluorobenzyl)-1-[(2S)-1-hydroxy-3-methylbutan-2-yl]-7-methoxy-4-oxo-1,4-dihydroquinoline-3-carboxylic acid]",CC50 at 7 days,[1]; ADA assay,> 500 nM
same,CC50 at 7 days,[1]; Ba-L assay,> 500 nM
same,CC50 at 7 days,[1]; JR-CSF assay,> 100 nM
same,IC50,"HIV-1 clinical isolates [2]; HIV-1 96USHIPS7 (subtype /B, R5) in PBMCs",0.26 nM
same,IC50,"HIV-1 clinical isolates [2]; HIV-1 BR/92/021 (subtype B/B, R5) in PBMCs",0.76 nM
same,IC50,"HIV-1 clinical isolates [2]; HIV-1 BR/93/020 (subtype F/F, R5/X4) in PBMCs",0.74 nM
same,IC50,"HIV-1 clinical isolates [2]; HIV-1 CMU 02 (subtype /EA, X4) in PBMCs",1.26 nM
same,IC50,"HIV-1 clinical isolates [2]; HIV-1 JV 1083 (subtype /G, R5) in PBMCs",0.35 nM
same,IC50,"HIV-1 clinical isolates [2]; HIV-1 RW/92/016 (subtype A/A, R5) in PBMCs",0.41 nM
same,IC50,"HIV-1 clinical isolates [2]; HIV-1 UG/92/046 (subtype D/D, X4) in PBMCs",0.5 nM
same,TI (TC50/IC50),HIV-2 CDC 310319 [3],>188.7
same,CC50,human PBMCs [4],> 100 nM
same,IC50,"[5]; Human immunodeficiency virus 1, BAL, Macrophage, HIV-1 Ba-L in macrophages",0.67 nM
same,IC50,"[5]; Human immunodeficiency virus 1, Macrophage, HIV-1 ADA in macrophages",0.07 nM
same,IC50,"[5]; Human immunodeficiency virus 1, Macrophage, HIV-1 JR-CSF in macrophages",0.31 nM
same,TI (TC50/IC50),[6]; HIV-1 ADA in macrophages,>7142.9
same,TI (TC50/IC50),[6]; HIV-1 Ba-L in macrophages,>746.3
same,TI (TC50/IC50),[6]; HIV-1 JR-CSF in macrophages,>322.6
same,IC50,HIV-2 CDC 310319 [7],0.53 nM
same,TI (TC50/IC50),[8]; HIV-1 52-52 in PBMCs,>588.2
same,TI (TC50/IC50),[8]; HIV-1 144-44 in PBMCs,>138.89
same,TI (TC50/IC50),[8]; HIV-1 1002-60 in PBMCs,>769.2
same,TI (TC50/IC50),[8]; HIV-1 1064-52 in PBMCs,>158.7
same,TI (TC50/IC50),[8]; HIV-1 MDR 769 in PBMCs,>555.6
same,TI (TC50/IC50),[8]; HIV-1 MDR 807 in PBMCs,>88.5
same,TI (TC50/IC50),[8]; HIV-1 MDR 1385 in PBMCs,>5000.0
same,TI (TC50/IC50),[8]; HIV-1 MDR 3761 in PBMCs,>137.0
same,IC50,[8]; HIV-1 52-52 (protease-inhibitor resistant) in PBMCs,0.17 nM
same,IC50,"[8]; against several viruses (e.g., MDR 1385, MDR 3761) in PBMCs",< 1 nM
same,IC50,[8]; multi-drug-resistant HIV-1 MDR 769 in PBMCs,0.18 nM
same,IC50,[8]; multi-drug-resistant HIV-1 MDR 807 in PBMCs,1.13 nM
same,IC50,[8]; multi-drug-resistant HIV-1 MDR 1385 in PBMCs,0.02 nM
same,IC50,[8]; multi-drug-resistant HIV-1 MDR 3761 in PBMCs,0.73 nM
same,TI (TC50/IC50),HIV-1 clinical isolates [9]; HIV-1 96USHIPS7 in PBMCs,>384.6
same,TI (TC50/IC50),HIV-1 clinical isolates [9]; HIV-1 BFC01 in PBMCs,>85.5
same,TI (TC50/IC50),HIV-1 clinical isolates [9]; HIV-1 BR/92/021 in PBMCs,>131.6
same,TI (TC50/IC50),HIV-1 clinical isolates [9]; HIV-1 BR/92/025 in PBMCs,>1000.0
same,TI (TC50/IC50),HIV-1 clinical isolates [9]; HIV-1 BR/93/017 in PBMCs,>555.6
same,TI (TC50/IC50),HIV-1 clinical isolates [9]; HIV-1 BR/93/020 in PBMCs,>135.1
same,TI (TC50/IC50),HIV-1 clinical isolates [9]; HIV-1 BR/93/022 in PBMCs,>88.5
same,TI (TC50/IC50),HIV-1 clinical isolates [9]; HIV-1 CMU 02 in PBMCs,>79.4
same,TI (TC50/IC50),HIV-1 clinical isolates [9]; HIV-1 JV 1083 in PBMCs,>285.7
same,TI (TC50/IC50),HIV-1 clinical isolates [9]; HIV-1 RW/92/016 in PBMCs,>243.9
same,TI (TC50/IC50),HIV-1 clinical isolates [9]; HIV-1 UG/92/046 in PBMCs,>200.0
same,EC50,"[10]; Human immunodeficiency virus 1, NL43, 120 recombinant clones",1.06 nM
same,EC50,"[10]; Human immunodeficiency virus 1, NL43, Reference clone (NL4-3), ten replicates",1.11 nM
same,CC50 at 7 days,[11],> 100 nM
same,CC50,human PBMCs [12]; 52-52 assay,> 100 nM
same,CC50,human PBMCs [12]; 96USHIPS7 assay,> 100 nM
same,CC50,human PBMCs [12]; 144-44 assay,> 100 nM
same,CC50,human PBMCs [12]; 1002-60 assay,> 100 nM
same,CC50,human PBMCs [12]; 1064-52 assay,> 100 nM
same,CC50,human PBMCs [12]; BFC01 assay,> 100 nM
same,CC50,human PBMCs [12]; BR/92/025 assay,> 100 nM
same,CC50,human PBMCs [12]; BR/93/017 assay,> 100 nM
same,CC50,human PBMCs [12]; BR/93/020 assay,> 100 nM
same,CC50,human PBMCs [12]; BR/93/022 assay,> 100 nM
same,CC50,human PBMCs [12]; CMU 02 assay,> 100 nM
same,CC50,human PBMCs [12]; HIV-2 CDC 310319 assay,> 100 nM
same,CC50,human PBMCs [12]; JV 1083 assay,> 100 nM
same,CC50,human PBMCs [12]; RW/92/016 assay,> 100 nM
same,CC50,human PBMCs [12]; UG/92/046 assay,> 100 nM
